≈ marks a conversion by molar mass, not a printed value. Marks after values point to notes of the source that are not given here. Where a SMILES comes first, the peptide text is derived from it. [ ]: non-standard residue; d: D form. The star is where a group is joined. d(aIle) = CC[C@H](C)[C@@H](N)C(=O)O; X1 = CC[C@H](C)CCCCC(=O)*; dDab = NCC[C@@H](N)C(=O)O; Dab = NCC[C@H](N)C(=O)O
Legend:
[1] = tested on: K. pneumoniae; assay type: cell-based, Klebsiella pneumoniae
Experimental: The MIC for all isolates was determined using the broth microdilution method. This involved preparing CA-MHB medium and serially diluting antibiotic solutions by a factor of two. The test organism was adjusted to a concentration of ≈5 × 10^5 CFU/mL. In a sterile 96-well microtiter plate, 100 µL of CA-MHB, along with 100 µL of each antibiotic, was added, and serial dilutions were made. A 100 µL suspension of the organism was added to each well and mixed, resulting in a total reaction volume of 200 µL per well. The plate was then incubated at 37°C for 16–18 h. The MIC was identified as the lowest concentration of antibiotic that prevented any visible growth of the organism ([16]).

[2] = Intravenous acute toxicity in mice; assay type: in vivo, Balb/c mice
Experimental: In total, 8–10 week old female Balb/c mice (n = 3) were administered tridecaptin M starting at 15 mg/kg, 25 mg/kg, 50 mg/kg, and 100 mg/kg. […] In this study, we administered 18 mg/kg of colistin to mice intravenously. […] Later, in the second set, intermediate concentrations of 20 mg/kg, 25 mg/kg, 30 mg/kg, 35 mg/kg, and 40 mg/kg doses were also administered to n = 4 mice. In these groups, blood was collected at 24 h post administration or immediately after visible movement stopped (40 mg/kg group), serum was separated and pooled together for each group n = 4, and biochemical serum tests were conducted.

[3] = in vitro; details: rat, plasma, % Binding to Plasma Protein
Experimental: (§2) Plasma protein binding was assessed using the rapid equilibrium dialysis (RED) method, utilizing RED insert devices with a dialysis membrane featuring an 8,000 Dalton molecular weight cutoff for proteins. The test/control items in human, rat, and mouse plasma were prepared at a test concentration of 10 µM using 10 mM DMSO stocks, and the samples were added to the plasma chamber of the RED insert. The device was sealed with tape and incubated in a thermomixer at 37°C with shaking at 300 rpm for 4 h. Following incubation, a 50 µL aliquot of plasma and buffer was collected from each insert and diluted with an equal volume of the opposite matrix to mitigate matrix effects. The samples were quantified using LC-MS/MS analysis and were tested in duplicates.

[4] = target: CYP2C9 (Homo sapiens, UniProt P11712); assay: CYP inhibition assay, recombinant isoform, fluorescence; assay type: biochemical
Experimental: (§1) The CYP inhibition assay was performed for test/control inhibitor items in duplicates using a 96-well fluorescence plate. An example of the preparation of CYP inhibition is given below in Table 8.
The plate with CYP master premix with test/control was incubated to allow the test/control samples to interact with CYP enzyme for 10 ± 1 min at 25°C under shaking conditions (400 rpm) using Thermomixer. The assay was initiated by adding 10 µL of a substrate and NADP^+ mixture to all wells, including a vehicle control and an assay blank. The plate was then incubated at 25°C for 25 min with shaking at 400 rpm using a thermomixer. After incubation, the reaction was quenched by adding 50 µL of stop reagent (0.5 M Tris base) to each well. Fluorescence was measured using a microplate reader at excitation/emission wavelengths of 415/460 nm, respectively ([37]).

[5] = target: T1, CYP1A2 (Homo sapiens, UniProt P05177); assay: biochemical; assay type: biochemical
T1 sequence (P05177 1-516): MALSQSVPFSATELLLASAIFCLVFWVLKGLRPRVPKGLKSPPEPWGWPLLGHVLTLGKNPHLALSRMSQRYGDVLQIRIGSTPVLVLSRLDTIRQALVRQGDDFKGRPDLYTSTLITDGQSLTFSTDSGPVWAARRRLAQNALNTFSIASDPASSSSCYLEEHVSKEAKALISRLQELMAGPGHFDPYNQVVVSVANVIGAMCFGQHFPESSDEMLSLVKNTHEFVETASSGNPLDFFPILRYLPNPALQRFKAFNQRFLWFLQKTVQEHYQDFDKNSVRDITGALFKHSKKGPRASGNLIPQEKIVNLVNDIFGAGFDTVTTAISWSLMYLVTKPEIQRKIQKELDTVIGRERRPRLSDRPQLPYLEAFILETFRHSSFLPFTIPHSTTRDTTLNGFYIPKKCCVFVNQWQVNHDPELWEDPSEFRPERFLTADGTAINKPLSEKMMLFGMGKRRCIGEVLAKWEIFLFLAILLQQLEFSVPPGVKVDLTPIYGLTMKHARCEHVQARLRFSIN
Experimental: as §1
The plate with CYP master premix with test/control was incubated to allow the test/control samples to interact with CYP enzyme for 10 ± 1 min at 25°C under shaking conditions (400 rpm) using Thermomixer. The assay was initiated by adding 10 µL of a substrate and NADP^+ mixture to all wells, including a vehicle control and an assay blank. […] After incubation, the reaction was quenched by adding 50 µL of stop reagent (0.5 M Tris base) to each well.

[6] = concentrations well above its MIC; cited from earlier work
[7] = in vitro; details: mouse, plasma, % Binding to Plasma Protein
Experimental: as §2

[8] = in vivo; details: male, Sprague-Dawley, rat, plasma, 5 mg/kg; for Cmax / half-life: 5 mg/kg b.w.
Experimental: The samples were then centrifuged at 4,000 rpm for 10 min at 4°C to separate plasma, which was stored at −80°C until analysis.

[9] = 40 /kg i.v., at death within 2 h

CYP2C9, sequence (P11712 whole entry, canonical isoform): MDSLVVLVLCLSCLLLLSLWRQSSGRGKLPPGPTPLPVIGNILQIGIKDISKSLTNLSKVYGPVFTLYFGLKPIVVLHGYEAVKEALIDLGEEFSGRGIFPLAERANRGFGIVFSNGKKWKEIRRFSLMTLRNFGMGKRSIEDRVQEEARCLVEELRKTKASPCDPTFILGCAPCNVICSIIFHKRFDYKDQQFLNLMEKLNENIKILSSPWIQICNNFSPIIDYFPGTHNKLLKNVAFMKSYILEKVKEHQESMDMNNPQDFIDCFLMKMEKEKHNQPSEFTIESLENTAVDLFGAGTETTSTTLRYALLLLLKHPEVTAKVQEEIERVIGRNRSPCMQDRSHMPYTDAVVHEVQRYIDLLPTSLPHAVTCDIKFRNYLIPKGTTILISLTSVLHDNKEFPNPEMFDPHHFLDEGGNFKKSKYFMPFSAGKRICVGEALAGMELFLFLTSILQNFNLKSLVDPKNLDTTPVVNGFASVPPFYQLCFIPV

CC[C@H](C)CCCCC(=O)NCC(=O)N[C@H](CCN)C(=O)NCC(=O)N[C@H](CO)C(=O)N[C@H](Cc1c[nH]c2ccccc12)C(=O)N[C@@H](CO)C(=O)N[C@@H](CCN)C(=O)N[C@H](CCN)C(=O)N[C@H](C(=O)N[C@@H](CCC(=O)O)C(=O)N[C@H](C(=O)N[C@@H](C(=O)N[C@@H](CO)C(=O)O)[C@@H](C)CC)[C@@H](C)CC)[C@@H](C)CC [Tridecaptin M, tridecaptin M] (X1-G[dDab]G[dS][dW]S[Dab][dDab]IEI[d(aIle)]S-OH)
MIC [1]: 4 µg/mL (≈ 2.69 µM)
MIC90 [1]: 8 µg/mL (≈ 5.37 µM)
MIC range [1]: 2 to 8 µg/mL
MIC values [1]: 2 to 8 µg/mL
Amylase (pooled serum) ([2]; 20 mg/kg i.v., 24 h): 3800 U/L
BUN (pooled serum) ([2]; 20 mg/kg i.v., 24 h): 96 mg%
CPK (pooled serum) ([2]; 20 mg/kg i.v., 24 h): 448 U/L
CPK_MB (pooled serum) ([2]; 20 mg/kg i.v., 24 h): 420 U/L
Glucose (pooled serum) ([2]; 20 mg/kg i.v., 24 h): 344 mg/dL
LDH (pooled serum) ([2]; 20 mg/kg i.v., 24 h): 2120 U/L
Lipase (pooled serum) ([2]; 20 mg/kg i.v., 24 h): 1016 U/L
SGOT (pooled serum) ([2]; 20 mg/kg i.v., 24 h): 244 Units/L
SGPT (pooled serum) ([2]; 20 mg/kg i.v., 24 h): 68 Units/L
outcome of i.v. administration ([2]; 25 mg/kg or less i.v.): no visible signs of toxicity or mortality
clinical signs ([2]; 30 mg/kg i.v.): abnormal motor behavior, including dragging of limbs
survival time post-administration ([2]; 30 mg/kg i.v.): 6 to 10 h
time to mortality ([2]; 40 mg/kg i.v.): ≤ 2 h
outcome of i.v. administration ([2]; 50 mg/kg i.v.): resulted in mortality
outcome of i.v. administration ([2]; 100 mg/kg i.v.): immediately lethal
Amylase (pooled serum) ([2]; 25 /kg i.v., 24 h): 5144 U/L
BUN (pooled serum) ([2]; 25 /kg i.v., 24 h): 112 mg%
CPK (pooled serum) ([2]; 25 /kg i.v., 24 h): 712 U/L
CPK_MB (pooled serum) ([2]; 25 /kg i.v., 24 h): 952 U/L
Glucose (pooled serum) ([2]; 25 /kg i.v., 24 h): 248 mg/dL
LDH (pooled serum) ([2]; 25 /kg i.v., 24 h): 3896 U/L
Lipase (pooled serum) ([2]; 25 /kg i.v., 24 h): 972 U/L
SGOT (pooled serum) ([2]; 25 /kg i.v., 24 h): 872^b Units/L
SGPT (pooled serum) ([2]; 25 /kg i.v., 24 h): 208 Units/L
Amylase (pooled serum) [2, 9]: 1560 U/L
BUN (pooled serum) [2, 9]: 24 mg%
CPK (pooled serum) [2, 9]: 24,472 U/L
CPK_MB (pooled serum) [2, 9]: 1408 U/L
Glucose (pooled serum) [2, 9]: 152 mg/dL
LDH (pooled serum) [2, 9]: 3280 U/L
Lipase (pooled serum) [2, 9]: 368 U/L
SGOT (pooled serum) [2, 9]: 784 Units/L
SGPT (pooled serum) [2, 9]: 88 Units/L
histopathology of liver, kidney, heart and brain vs control ([2]; i.v. administration): no significant morphological alterations
dose at which acute toxicity is seen ([2]; intravenous administration): ≥ 30 mg/kg
fraction unbound at 4 h, 10 µM [3]: 0.465
IC50 [4]: > 30 µM
inhibition at 25 min, 0.01 µM ([4]; human): < 0%
inhibition at 25 min, 0.03 µM ([4]; human): 0.93%
inhibition at 25 min, 0.1 µM ([4]; human): < 0%
inhibition at 25 min, 0.3 µM ([4]; human): < 0%
inhibition at 25 min, 1 µM ([4]; human): 0.05%
inhibition at 25 min, 3 µM ([4]; human): < 0%
inhibition at 25 min, 10 µM ([4]; human): 0.82%
inhibition at 25 min, 30 µM ([4]; human): 25.6%
IC50 [5]: > 30 µM
inhibition at 25 min, 0.01 µM ([5]; human, % inhibition CYP 1A2): < 0%
inhibition at 25 min, 0.03 µM ([5]; human, % inhibition CYP 1A2): < 0%
inhibition at 25 min, 0.1 µM ([5]; human, % inhibition CYP 1A2): < 0%
inhibition at 25 min, 0.3 µM ([5]; human, % inhibition CYP 1A2): < 0%
inhibition at 25 min, 1 µM ([5]; human, % inhibition CYP 1A2): < 0%
inhibition at 25 min, 3 µM ([5]; human, % inhibition CYP 1A2): < 0%
inhibition at 25 min, 10 µM ([5]; human, % inhibition CYP 1A2): < 0%
inhibition at 25 min, 30 µM ([5]; human, % inhibition CYP 1A2): ≤ 0%
hemolysis [6]: non-hemolytic
fraction unbound at 4 h, 10 µM [7]: 0.5
AUC(0-t) ([8]; iv): 94600 ± 45000 ng·h/mL
MRT last ([8]; iv): 2.69 ± 1.02 h
Vd ([8]; iv): 0.16 ± 0.04 L/kg
clearance ([8]; iv): 1 ± 0.33 mL/min/kg
Cmax ([8]; iv): 38500 ng/mL
half-life ([8]; iv, T1/2, intravenous): 3.65 ± 0.56 h
AUC(0-t) ([8]; sc): 14000 ± 2090 ng·h/mL
MRT last ([8]; sc): 8.81 ± 2.1 h
Cmax ([8]; sc, subcutaneous): 9150 ± 1700 ng/mL
half-life ([8]; sc, T1/2, subcutaneous): 8.81 h

Source: publication PMC12486805, “Preclinical evaluation of tridecaptin M: in vitro and in vivo efficacy against colistin-resistant Gram-negative bacterial pathogens and pharmacokinetics” (Antimicrobial Agents and Chemotherapy, 2025)
